Measurements reported in ChEMBL document CHEMBL5120746, “Novel 5-fluorouracil sensitizers for colorectal cancer therapy: Design and synthesis of S1P receptor 2 (S1PR2) antagonists” (Eur J Med Chem, 2022).
Active and inactive are the calls of the source. No cut-off for these calls is given here.

Legend:
[1] = system: HCT-116; assay: Reversal of 5-FU resistance against 5-FU resistant DPD expressed human HCT-116 cells assessed as reduction in cell viability incubated for 48 hrs in presence of 5-FU by MTT assay; type: functional, cell-based; details: HCT-116, 48 h
[2] = system: SW620/5-FU; assay: Reversal of 5-FU resistance against human SW620/5-FU cells assessed as reduction in cell viability incubated for 48 hrs in presence of 5-FU by MTT assay; type: functional, cell-based
[3] = system: NCM460; assay: Cytotoxicity against human NCM460 cells assessed as reduction in cell viability at 5 to 80 uM in presence of 5-fluorouracil; type: toxicity, cell-based; details: ncm460, 80 µM, dose 5-80 µM
[4] = system: SW620/5-FU; assay: Downregulation of DPD expression level in human SW620/5-FU cells measured after 12 hrs by Western blot analysis; type: functional, cell-based; details: dose 5-40 µM, DDE = dose-dependent effect
[5] = system: HCT-116; assay: Downregulation of DPD expression in DPD expressed human HCT-116 cells measured after 12 hrs by Western blot analysis; type: functional, cell-based; details: dose 5-40 µM, DDE = dose-dependent effect
[6] = system: SW620/5-FU; assay: Downregulation of DPD expression in human SW620/5-FU cells at 10 uM by Western blot analysis; type: functional, cell-based; details: time 4-48 hrs, TDE = time-dependent effect
[7] = molecular target: ATP-dependent translocase ABCB1 (Homo sapiens, UniProt P08183); assay: Reversal of Pgp-mediated paclitaxel resistance in human LCC6MDR cells assessed as P-gp modulating activity by measuring relative fold at 1 uM; type: cell-based
Chain of ATP-dependent translocase ABCB1 (P08183 whole entry): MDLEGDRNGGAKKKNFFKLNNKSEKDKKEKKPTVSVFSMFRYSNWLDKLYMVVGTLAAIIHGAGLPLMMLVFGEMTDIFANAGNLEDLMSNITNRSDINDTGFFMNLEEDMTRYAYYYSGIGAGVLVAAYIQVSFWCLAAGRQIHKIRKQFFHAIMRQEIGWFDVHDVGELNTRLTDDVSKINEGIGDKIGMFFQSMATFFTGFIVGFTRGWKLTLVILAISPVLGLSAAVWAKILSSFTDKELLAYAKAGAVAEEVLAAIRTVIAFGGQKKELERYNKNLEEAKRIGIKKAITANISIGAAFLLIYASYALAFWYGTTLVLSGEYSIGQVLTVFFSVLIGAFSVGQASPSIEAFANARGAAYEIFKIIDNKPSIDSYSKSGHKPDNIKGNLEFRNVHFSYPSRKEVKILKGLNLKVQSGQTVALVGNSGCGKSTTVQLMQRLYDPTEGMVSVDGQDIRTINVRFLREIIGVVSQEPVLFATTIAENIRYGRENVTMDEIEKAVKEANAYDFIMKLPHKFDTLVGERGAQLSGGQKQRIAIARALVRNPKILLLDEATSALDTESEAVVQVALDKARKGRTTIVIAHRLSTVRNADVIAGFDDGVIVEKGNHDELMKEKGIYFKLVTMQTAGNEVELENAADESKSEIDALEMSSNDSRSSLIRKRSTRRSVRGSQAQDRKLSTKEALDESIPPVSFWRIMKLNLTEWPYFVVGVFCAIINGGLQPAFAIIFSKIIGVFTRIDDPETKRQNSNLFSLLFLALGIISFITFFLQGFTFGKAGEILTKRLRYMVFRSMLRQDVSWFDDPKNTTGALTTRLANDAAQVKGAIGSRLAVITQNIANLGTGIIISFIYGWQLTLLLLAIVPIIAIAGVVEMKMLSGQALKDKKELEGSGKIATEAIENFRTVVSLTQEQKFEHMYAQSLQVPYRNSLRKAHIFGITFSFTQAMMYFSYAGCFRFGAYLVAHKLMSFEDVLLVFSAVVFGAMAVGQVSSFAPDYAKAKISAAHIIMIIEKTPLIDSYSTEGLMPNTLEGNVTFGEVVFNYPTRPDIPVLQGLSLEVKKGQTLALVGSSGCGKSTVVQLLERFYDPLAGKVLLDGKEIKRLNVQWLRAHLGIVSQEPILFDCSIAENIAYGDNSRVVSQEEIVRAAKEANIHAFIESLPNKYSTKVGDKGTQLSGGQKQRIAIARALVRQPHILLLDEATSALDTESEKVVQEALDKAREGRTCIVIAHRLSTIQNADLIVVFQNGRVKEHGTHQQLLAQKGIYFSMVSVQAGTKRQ

[8] = Downregulation of S1PR2 mRNA expression level in DPD expressed human HCT-116 cells at 20 uM measured after 24 hrs by qRT-PCR analysis; type: functional
[9] = AUC (0 to t) in Sprague-Dawley rat blood at 1 mg/kg, iv measured up to 24 hrs by HPLC-MS/MS analysis; type: ADME, organism-based; design: dose 1 mg/kg, time < 24 hrs, route iv
[10] = MRT (0 to t) in Sprague-Dawley rat blood at 1 mg/kg, iv measured up to 24 hrs by HPLC-MS/MS analysis; type: ADME, organism-based
[11] = MRT (0 to infinity) in Sprague-Dawley rat blood at 1 mg/kg, iv measured up to 24 hrs by HPLC-MS/MS analysis; type: ADME, organism-based
[12] = Half life in Sprague-Dawley rat plasma at 1 mg/kg, iv measured up to 24 hrs by HPLC-MS/MS analysis; type: ADME, organism-based; details: in vivo
[13] = AUC (0 to t) in Sprague-Dawley rat plasma at 1 mg/kg, iv measured up to 24 hrs by HPLC-MS/MS analysis; type: ADME, organism-based; design: dose 1 mg/kg, time < 24 hrs, route iv
[14] = AUC (0 to infinity) in Sprague-Dawley rat plasma at 1 mg/kg, iv measured up to 24 hrs by HPLC-MS/MS analysis; type: ADME, organism-based; design: dose 1 mg/kg, time < 24 hrs, route iv
[15] = Apparent volume of distribution in Sprague-Dawley rat plasma at 1 mg/kg, iv measured up to 24 hrs by HPLC-MS/MS analysis; type: ADME, organism-based; details: in vivo
[16] = Clearance in Sprague-Dawley rat plasma at 1 mg/kg, iv measured up to 24 hrs by HPLC-MS/MS analysis; type: ADME, organism-based; details: in vivo
[17] = MRT (0 to t) in Sprague-Dawley rat plasma at 1 mg/kg, iv measured up to 24 hrs by HPLC-MS/MS analysis; type: ADME, organism-based
[18] = MRT (0 to infinity) in Sprague-Dawley rat plasma at 1 mg/kg, iv measured up to 24 hrs by HPLC-MS/MS analysis; type: ADME, organism-based
[19] = Toxicity in SPF nude mouse xenografted with DPD expressed human HCT-116 cells assessed as change in body weight at 15 mg/kg, iv QD for 20 days and measured every 4 days; type: organism-based; details: in vivo, 480 h, time 20 day
[20] = Toxicity in SPF nude mouse xenografted with human SW620/5-FU cells assessed as change in body weight at 7.5 mg/kg, iv QD for 21 days and measured every 4 days in presence of 5-fluorouracil; type: organism-based; details: in vivo, 504 h, time 21 day
[21] = system: HCT-116; assay: Antitumor activity against DPD expressed human HCT-116 cells xenografted in SPF nude mouse assessed as tumor growth inhibition at 15 mg/kg, iv QD for 20 days and measured every 4 days in presence of 5-fluorouracil; type: functional; details: HCT-116, 480 h, time 20 day, read-out: TGI
[22] = system: SW620/5-FU; assay: Antitumor activity against human SW620/5-FU cells xenografted in SPF nude mouse assessed as tumor growth inhibition at 15 mg/kg, iv QD for 21 days and measured every 4 days; type: functional; details: 504 h, time 21 day, read-out: TGI
[23] = system: SW620/5-FU; assay: Antitumor activity against human SW620/5-FU cells xenografted in SPF nude mouse assessed as tumor growth inhibition at 7.5 mg/kg, iv QD for 21 days and measured every 4 days; type: functional; details: 504 h, time 21 day, read-out: TGI
[24] = system: SW620/5-FU; assay: Antitumor activity against human SW620/5-FU cells xenografted in SPF nude mouse assessed as tumor growth inhibition at 15 mg/kg, iv QD for 21 days and measured every 4 days in presence of 5-fluorouracil; type: functional; details: 504 h, time 21 day, read-out: TGI
[25] = system: SW620/5-FU; assay: Antitumor activity against human SW620/5-FU cells xenografted in SPF nude mouse assessed as tumor growth inhibition at 30 mg/kg, iv QD for 21 days and measured every 4 days in presence of 5-fluorouracil; type: functional; details: 504 h, time 21 day, read-out: TGI
[26] = system: SW620/5-FU; assay: Antitumor activity against human SW620/5-FU cells xenografted in SPF nude mouse assessed as reduction in tumor weight at 7.5 mg/kg, iv QD for 21 days; type: functional; design: scale not given: the % may be the effect or the level left; details: time 21 day
[27] = system: SW620/5-FU; assay: Antitumor activity against human SW620/5-FU cells xenografted in SPF nude mouse assessed as reduction in tumor weight at 7.5 mg/kg, iv QD for 21 days in presence of 5-fluorouracil; type: functional; design: scale not given: the % may be the effect or the level left; details: time 21 day
[28] = system: SW620/5-FU; assay: Antitumor activity against human SW620/5-FU cells xenografted in SPF nude mouse assessed as reduction in tumor weight at 15 mg/kg, iv QD for 21 days in presence of 5-fluorouracil; type: functional; design: scale not given: the % may be the effect or the level left; details: time 21 day
[29] = system: SW620/5-FU; assay: Antitumor activity against human SW620/5-FU cells xenografted in SPF nude mouse assessed as reduction in tumor weight at 30 mg/kg, iv QD for 21 days in presence of 5-fluorouracil; type: functional; design: scale not given: the % may be the effect or the level left; details: time 21 day
[30] = system: Mus musculus; assay: Downregulation of DPD expression in tumor of SPF nude mouse xenografted with human SW620/5-FU cells administered intravenously QD for 21 days by Western blot analysis; type: functional; details: dose 7.5-15 mg/kg, route iv, time 21.0 day, DDE = dose-dependent effect
[31] = system: Mus musculus; assay: Downregulation of DPD expression in liver of SPF nude mouse xenografted with human SW620/5-FU cells at 15 to 30 mg/kg, iv QD for 21 days in presence of 5-fluorouracil by Western blot analysis; type: functional, organism-based; details: dose 15-30 mg/kg, time 21.0 day
[32] = system: Mus musculus; assay: Downregulation of DPD expression in tumor of SPF nude mouse xenografted with human SW620/5-FU cells at 7.5 to 15 mg/kg, iv QD for 21 days by immunohistochemical analysis; type: functional, organism-based; details: dose 7.5-15 mg/kg, time 21.0 day
[33] = system: Mus musculus; assay: Downregulation of S1PR2 expression in tumor SPF nude mouse xenografted with human SW620/5-FU cells at 7.5 to 15 mg/kg, iv QD for 21 days by immunohistochemical analysis; type: functional, organism-based; details: dose 7.5-15 mg/kg, time 21.0 day

EC50 [1]: 8.21 µM | EC50 [2]: 9.15 µM | fold change (FC) [7]: 1.4 | AUC(0-t) at 24 h [9]: 10300 ng·h/mL | MRT last at 24 h [10]: 7.9 h | MRT inf [11]: 8.5 h | t1/2 [12]: 4.4 h | AUC(0-t) at 24 h [13]: 10100 ng·h/mL | AUC(0-inf) [14]: 11700 ng·h/mL | Vd(app) [15]: 2 L/kg | CL [16]: 1.5 mL/min/kg | MRT last at 24 h [17]: 7.6 h | MRT inf [18]: 8.3 h
Structure (SMILES): Cn1ncc2c(-c3ccc(F)cc3)cc(NNC(=O)Nc3cc(Cl)nc(Cl)c3)nc21
Activity [3]: Toxic | Activity [4]: Dde | Activity [5]: Dde | Activity [6]: Tde | Activity [8]: 25% | Activity [19]: Non-Toxic | Activity [20]: Non-Toxic | inhibition in vivo at 15 mg/kg [21]: 70.1% | inhibition in vivo at 15 mg/kg [22]: 28.5% | inhibition in vivo at 7.5 mg/kg [23]: 14.7% | inhibition in vivo at 15 mg/kg [24]: 52% | inhibition in vivo at 30 mg/kg [25]: 62.1% | Activity [26]: 8.68% | Activity [27]: 47.79% | Activity [28]: 51.72% | Activity [29]: 60.81% | Activity [30]: Dde | Activity [31]: Active | Activity [32]: Active | Activity [33]: Active
